The values that follow come from the Kinase Knowledgebase extract (Sharma et al. 2016).

PIK3CD (Human), sequence (O00329 whole entry, looked up): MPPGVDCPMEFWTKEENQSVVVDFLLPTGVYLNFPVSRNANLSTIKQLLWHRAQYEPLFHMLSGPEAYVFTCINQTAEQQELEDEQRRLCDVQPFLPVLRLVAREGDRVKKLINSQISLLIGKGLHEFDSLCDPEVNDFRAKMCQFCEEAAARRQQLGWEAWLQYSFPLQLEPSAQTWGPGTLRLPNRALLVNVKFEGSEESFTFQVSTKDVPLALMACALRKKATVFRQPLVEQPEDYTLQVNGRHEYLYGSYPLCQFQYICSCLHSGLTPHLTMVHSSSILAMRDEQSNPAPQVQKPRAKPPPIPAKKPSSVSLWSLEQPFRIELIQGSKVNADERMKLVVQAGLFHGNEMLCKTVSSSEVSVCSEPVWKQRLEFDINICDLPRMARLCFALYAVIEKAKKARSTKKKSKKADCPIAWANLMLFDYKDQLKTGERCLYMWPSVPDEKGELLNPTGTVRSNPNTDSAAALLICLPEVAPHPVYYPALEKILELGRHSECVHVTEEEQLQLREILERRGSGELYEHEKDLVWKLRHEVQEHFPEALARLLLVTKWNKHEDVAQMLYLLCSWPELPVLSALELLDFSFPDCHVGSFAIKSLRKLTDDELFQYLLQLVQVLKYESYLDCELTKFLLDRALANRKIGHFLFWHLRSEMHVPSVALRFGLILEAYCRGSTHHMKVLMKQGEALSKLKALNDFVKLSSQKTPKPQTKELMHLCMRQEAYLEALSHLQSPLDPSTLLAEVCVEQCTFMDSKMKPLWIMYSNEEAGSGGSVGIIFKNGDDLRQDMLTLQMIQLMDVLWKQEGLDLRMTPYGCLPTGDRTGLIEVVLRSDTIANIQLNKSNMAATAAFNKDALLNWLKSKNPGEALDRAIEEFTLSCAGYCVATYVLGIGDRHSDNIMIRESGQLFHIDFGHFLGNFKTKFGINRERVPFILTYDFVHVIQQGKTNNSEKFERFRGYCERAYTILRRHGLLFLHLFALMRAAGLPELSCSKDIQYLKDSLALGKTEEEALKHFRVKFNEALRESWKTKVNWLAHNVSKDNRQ

This experiment addresses PIK3CD (Human) (UniProt O00329). The experiment can be described thus: Cell-Based Assay. The settings on record: u937.
Take `C#Cc1cccc2nc(Cn3nc(-c4cccc(O)c4)c4c(N)ncnc43)n(Cc3cccc(S(C)(=O)=O)c3)c(=O)c12`: the IC50 is < 10 nM.

For the compound `C#Cc1cccc2nc(Cn3nc(-c4ccc(O)cc4)c4c(N)ncnc43)n(Cc3cccc(Cl)c3)c(=O)c12`, the IC50 is < 10 nM.

Consider `Nc1ncnc2c1c(-c1cccc(O)c1)nn2Cc1nc2cccc(C#CCCNC(=O)N3CCOCC3)c2c(=O)n1Cc1ccccc1Cl`, for which the IC50 is < 10 nM.

For `Nc1ncnc2c1c(-c1ccc(O)cc1)nn2Cc1nc2cccc(C#CCOCc3ccccc3)c2c(=O)n1Cc1ccccc1Cl`, the IC50 is < 10 nM.

On to `C#Cc1cccc2nc(Cn3nc(-c4ccc(O)cc4)c4c(N)ncnc43)n(Cc3c(F)cccc3F)c(=O)c12`, for which the IC50 is < 10 nM.

Consider `C#Cc1cccc2nc(Cn3nc(-c4ccc(O)cc4)c4c(N)ncnc43)n(Cc3ccc(C#N)cc3)c(=O)c12`, for which the IC50 was < 10 nM.

Regarding `Nc1ncnc2c1c(-c1cccc(O)c1)nn2Cc1nc2cccc(C#CCCCCC(=O)O)c2c(=O)n1Cc1ccccc1Cl`, the IC50 is < 10 nM.

For `CC(C)NC(=O)CCCC#Cc1cccc2nc(Cn3nc(-c4cccc(O)c4)c4c(N)ncnc43)n(Cc3ccccc3Cl)c(=O)c12`, the IC50 was < 10 nM.

For the compound `Nc1ncnc2c1c(-c1ccc(O)cc1)nn2Cc1nc2cccc(C#CCCCC(=O)Nc3ccncc3)c2c(=O)n1Cc1ccccc1Cl`, the IC50 was < 10 nM.

On to `C#Cc1cccc2nc(Cn3nc(-c4ccc(O)cc4)c4c(N)ncnc43)n(Cc3ccc(S(C)(=O)=O)cc3)c(=O)c12`, for which the IC50 was < 10 nM.

Take `C#Cc1cccc2nc(Cn3nc(-c4ccc(F)c(O)c4)c4c(N)ncnc43)n(Cc3ccccc3Cl)c(=O)c12`: the IC50 was < 10 nM.

For `Nc1ncnc2c1c(-c1cccc(O)c1)nn2Cc1nc2cccc(C#CCCC(=O)N3CCOCC3)c2c(=O)n1Cc1ccccc1Cl`, the IC50 is < 10 nM.

Consider `Cn1cc(Cn2c(Cn3nc(-c4cccc(O)c4)c4c(N)ncnc43)nc3cccc(C#CCCCC(=O)N4CCOCC4)c3c2=O)cn1`, for which the IC50 was < 10 nM.

Consider `C#Cc1cccc2nc(Cn3nc(-c4ccc(O)cc4)c4c(N)ncnc43)n(Cc3ccc(OC)cc3F)c(=O)c12`, for which the IC50 was < 10 nM.

For `C#Cc1cccc2nc(Cn3nc(-c4cccc(O)c4)c4c(N)ncnc43)n(Cc3cccc(Cl)c3)c(=O)c12`, the IC50 was < 10 nM.

In the case of `Nc1ncnc2c1c(-c1ccc(O)cc1)nn2Cc1nc2cccc(C#CCCCNC3CCCC3)c2c(=O)n1Cc1ccccc1Cl`, the IC50 is < 10 nM.

On to `Nc1ncnc2c1c(-c1cccc(O)c1)nn2Cc1nc2cccc(C#CCCCC(=O)Nc3ccncc3)c2c(=O)n1Cc1ccccc1Cl`, for which the IC50 is 10 to 1000 nM.

Regarding `Nc1ncnc2c1c(-c1ccc(O)cc1)nn2Cc1nc2cccc(C#CCCCC(=O)N3CCOCC3)c2c(=O)n1Cc1ccccc1F`, the IC50 was < 10 nM.

In the case of `Nc1ncnc2c1c(-c1ccc(O)cc1)nn2Cc1nc2cccc(C#CCCCC(=O)N3CCOCC3)c2c(=O)n1Cc1cc2ccccc2s1`, the IC50 is < 10 nM.

In the case of `CN1CCN(C(=O)CCCC#Cc2cccc3nc(Cn4nc(-c5cccc(O)c5)c5c(N)ncnc54)n(Cc4ccccc4Cl)c(=O)c23)CC1`, the IC50 is < 10 nM.

In the case of `COCC#Cc1cccc2nc(Cn3nc(-c4ccc(O)cc4)c4c(N)ncnc43)n(Cc3cccc(OC)c3)c(=O)c12`, the IC50 is < 10 nM.

As for `Nc1ncnc2c1c(-c1cccc(O)c1)nn2Cc1nc2cccc(C#CCCCC(=O)N3CCOCC3)c2c(=O)n1Cc1ccc2occc2c1`, the IC50 was < 10 nM.

With `C#Cc1cccc2nc(Cn3nc(-c4cccc(O)c4)c4c(N)ncnc43)n(Cc3ccc(C(F)(F)F)cc3)c(=O)c12`, the IC50 was < 10 nM.

In the case of `C#Cc1cccc2nc(Cn3nc(-c4ccc(O)cc4)c4c(N)ncnc43)n(Cc3ccccc3F)c(=O)c12`, the IC50 was < 10 nM.

Take `COc1cc(Cn2c(Cn3nc(-c4ccc(O)cc4)c4c(N)ncnc43)nc3cccc(C#CCCCC(=O)N4CCOCC4)c3c2=O)cc(C(F)(F)F)c1`: the IC50 was < 10 nM.

On to `COCCNC(=O)CCCC#Cc1cccc2nc(Cn3nc(-c4cccc(O)c4)c4c(N)ncnc43)n(Cc3ccccc3Cl)c(=O)c12`, for which the IC50 was < 10 nM.

`C#Cc1cccc2nc(Cn3nc(-c4ccc(O)cc4)c4c(N)ncnc43)n(Cc3cccc(Cl)c3F)c(=O)c12`: the IC50 was < 10 nM.

Take `C#Cc1cccc2nc(Cn3nc(-c4ccc(O)c(F)c4)c4c(N)ncnc43)n(Cc3ccccc3Cl)c(=O)c12`: the IC50 was < 10 nM.

Regarding `COc1cccc(Cn2c(Cn3nc(-c4ccc(O)cc4)c4c(N)ncnc43)nc3cccc(C#CCCCC(=O)N4CCOCC4)c3c2=O)c1F`, the IC50 is < 10 nM.

Take `C#Cc1cccc2nc(Cn3nc(-c4ccc(O)cc4)c4c(N)ncnc43)n(Cc3ccc(Cl)cc3F)c(=O)c12`: the IC50 is < 10 nM.

As to `CC(=O)N1CCN(C(=O)CCCC#Cc2cccc3nc(Cn4nc(-c5ccc(O)cc5)c5c(N)ncnc54)n(Cc4ccccc4Cl)c(=O)c23)CC1`, the IC50 is < 10 nM.

Consider `COc1cc(-c2nn(Cc3nc4cccc(C#CCCCC(=O)N5CCOCC5)c4c(=O)n3Cc3ccccc3Cl)c3ncnc(N)c23)ccc1O`, for which the IC50 is < 10 nM.

As to `Cc1nc(Cn2c(Cn3nc(-c4cccc(O)c4)c4c(N)ncnc43)nc3cccc(C#CCCCC(=O)N4CCOCC4)c3c2=O)cs1`, the IC50 is < 10 nM.

In the case of `C#Cc1cccc2nc(Cn3nc(-c4cccc(O)c4)c4c(N)ncnc43)n(Cc3ccc(Cl)cc3)c(=O)c12`, the IC50 is < 10 nM.

For `COCCN(CCCC#Cc1cccc2nc(Cn3nc(-c4ccc(O)cc4)c4c(N)ncnc43)n(Cc3ccccc3Cl)c(=O)c12)CCOC`, the IC50 was < 10 nM.

Consider `Nc1ncnc2c1c(-c1cccc(O)c1)nn2Cc1nc2cccc(C#CCCCC(=O)N3CCOCC3)c2c(=O)n1Cc1ccccc1Cl`, for which the IC50 was < 10 nM.

On to `COCC#Cc1cccc2nc(Cn3nc(-c4cccc(O)c4)c4c(N)ncnc43)n(Cc3ccc(Cl)cc3)c(=O)c12`, for which the IC50 is < 10 nM.

Turning to `CN1CCCN(C(=O)CCCC#Cc2cccc3nc(Cn4nc(-c5ccc(O)cc5)c5c(N)ncnc54)n(Cc4ccccc4Cl)c(=O)c23)CC1`, the IC50 is < 10 nM.

Consider `C#Cc1cccc2nc(Cn3nc(-c4ccc(O)cc4)c4c(N)ncnc43)n(Cc3ccc(Cl)cc3)c(=O)c12`, for which the IC50 is < 10 nM.

Consider `Nc1ncnc2c1c(-c1cccc(O)c1)nn2Cc1nc2cccc(C#CCCCCC(=O)N3CCOCC3)c2c(=O)n1Cc1ccccc1Cl`, for which the IC50 was < 10 nM.

In the case of `C#Cc1cccc2nc(Cn3nc(-c4ccc(O)cc4)c4c(N)ncnc43)n(Cc3cccc(C(F)(F)F)c3)c(=O)c12`, the IC50 was < 10 nM.

As to `Nc1ncnc2c1c(-c1cccc(O)c1)nn2Cc1nc2cccc(C#CCCCC(=O)N3CCC(N4CCOCC4)CC3)c2c(=O)n1Cc1ccccc1Cl`, the IC50 was < 10 nM.

`CN1CCCN(C(=O)CCCC#Cc2cccc3nc(Cn4nc(-c5cccc(O)c5)c5c(N)ncnc54)n(Cc4ccccc4Cl)c(=O)c23)CC1` yielded an IC50 of 10 to 1000 nM.

As to `NC(=O)NCC#Cc1cccc2nc(Cn3nc(-c4ccc(O)cc4)c4c(N)ncnc43)n(Cc3ccccc3Cl)c(=O)c12`, the IC50 is < 10 nM.

For `C#Cc1cccc2nc(Cn3nc(-c4ccc(O)cc4)c4c(N)ncnc43)n(Cc3ccc(C(F)(F)F)cc3)c(=O)c12`, the IC50 was < 10 nM.

For `CN(C)C1CCN(C(=O)CCCC#Cc2cccc3nc(Cn4nc(-c5ccc(O)cc5)c5c(N)ncnc54)n(Cc4ccccc4Cl)c(=O)c23)C1` (configuration not stated), the IC50 is < 10 nM.

For `C#Cc1cccc2nc(Cn3nc(-c4cccc(O)c4)c4c(N)ncnc43)n(Cc3cc(C)on3)c(=O)c12`, the IC50 was < 10 nM.

As to `C#Cc1cccc2nc(Cn3nc(-c4ccc(O)cc4)c4c(N)ncnc43)n(Cc3cccc(OC)c3)c(=O)c12`, the IC50 was < 10 nM.

Take `C#Cc1cccc2nc(Cn3nc(-c4ccc(O)cc4)c4c(N)ncnc43)n(Cc3ccc(OC)cc3)c(=O)c12`: the IC50 was < 10 nM.

Turning to `C#Cc1cccc2nc(Cn3nc(-c4cccc(O)c4)c4c(N)ncnc43)n(Cc3ccccc3F)c(=O)c12`, the IC50 was < 10 nM.

As to `C#Cc1cccc2nc(Cn3nc(-c4cccc(O)c4)c4c(N)ncnc43)n(Cc3cccc(C(F)(F)F)c3)c(=O)c12`, the IC50 was < 10 nM.

Regarding `CN(C)C(=O)CCCC#Cc1cccc2nc(Cn3nc(-c4ccc(O)cc4)c4c(N)ncnc43)n(Cc3ccccc3Cl)c(=O)c12`, the IC50 was < 10 nM.

With `CN1CCN(CCNC(=O)CCCC#Cc2cccc3nc(Cn4nc(-c5ccc(O)cc5)c5c(N)ncnc54)n(Cc4ccccc4Cl)c(=O)c23)CC1`, the IC50 is < 10 nM.

Regarding `C#Cc1cccc2nc(Cn3nc(-c4ccc(O)cc4)c4c(N)ncnc43)n(Cc3ccc(F)cc3)c(=O)c12`, the IC50 is < 10 nM.

`Nc1ncnc2c1c(-c1ccc(O)cc1)nn2Cc1nc2cccc(C#CCCCC(=O)NCCN3CCOCC3)c2c(=O)n1Cc1ccccc1Cl`: the IC50 was < 10 nM.

Regarding `Nc1ncnc2c1c(-c1ccc(O)cc1)nn2Cc1nc2cccc(C#CCCCO)c2c(=O)n1Cc1ccccc1Cl`, the IC50 is < 10 nM.

For the compound `COCCN1CCN(C(=O)CCCC#Cc2cccc3nc(Cn4nc(-c5ccc(O)cc5)c5c(N)ncnc54)n(Cc4ccccc4Cl)c(=O)c23)CC1`, the IC50 was < 10 nM.

Consider `C#Cc1cccc2nc(Cn3nc(-c4ccc(O)cc4)c4c(N)ncnc43)n(Cc3ccc(Cl)c(Cl)c3)c(=O)c12`, for which the IC50 is < 10 nM.

Regarding `CN1CCN(CCN(C)C(=O)CCCC#Cc2cccc3nc(Cn4nc(-c5ccc(O)cc5)c5c(N)ncnc54)n(Cc4ccccc4Cl)c(=O)c23)CC1`, the IC50 is < 10 nM.

Take `C#Cc1cccc2nc(Cn3nc(-c4cccc(O)c4)c4c(N)ncnc43)n(Cc3cccc(C#N)c3)c(=O)c12`: the IC50 is < 10 nM.

Regarding `C#Cc1cccc2nc(Cn3nc(-c4ccc(O)cc4)c4c(N)ncnc43)n(Cc3cc(OC)ccc3F)c(=O)c12`, the IC50 was < 10 nM.

As for `C#Cc1cccc2nc(Cn3nc(-c4ccc(O)cc4)c4c(N)ncnc43)n(Cc3ccccc3Cl)c(=O)c12`, the IC50 was < 10 nM.

Take `Nc1ncnc2c1c(-c1ccc(O)cc1)nn2Cc1nc2cccc(C#CCCCC(=O)NC3CCOCC3)c2c(=O)n1Cc1ccccc1Cl`: the IC50 is < 10 nM.

For the compound `C#Cc1cccc2nc(Cn3nc(-c4ccc(O)cc4)c4c(N)ncnc43)n(Cc3ccccc3)c(=O)c12`, the IC50 was < 10 nM.

For the compound `COCC#Cc1cccc2nc(Cn3nc(-c4ccc(O)cc4)c4c(N)ncnc43)n(Cc3ccccc3Cl)c(=O)c12`, the IC50 was < 10 nM.

For the compound `Nc1ncnc2c1c(-c1ccc(O)cc1)nn2Cc1nc2cccc(C#CCCCC(=O)N3CCCCC3)c2c(=O)n1Cc1ccccc1Cl`, the half-maximal inhibitory concentration (IC50) is < 10 nM.

With `Nc1ncnc2c1c(-c1cccc(O)c1)nn2Cc1nc2cccc(C#CCOCCN3CCOCC3)c2c(=O)n1Cc1ccccc1Cl`, the IC50 is < 10 nM.

By IC50 is commonly meant the concentration that gives 50% inhibition. A lower IC50 goes with greater potency.
